According to US8815909B2, “Diaminocyclohexane compounds and uses thereof” (Bristol-Myers Squibb Company, priority 2011, dated 2014):
pEC50: −log10 of the molar value.

Target: T1, human Y4 receptor (Homo sapiens, UniProt P50391)
T1 construct: expressed in transfected cells
Experiment: NPY4 cAMP HTRF Agonist Assay (inhibitory cAMP assay, Gi activation by Y4 agonism)
Assay type: cell-based
Conditions: second TABLE 1, R2 is Phenyl-CF3; read-out: hY4 CAMP EC50
How it was run: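 Y4 agonism read as lowered forskolin-stimulated cAMP (HTRF, 1 h detection at room temperature). Stable human Y4 CHO clone, 5000 cells/well, incubated 30 min at room temperature with compounds plus forskolin and IBMX in PBS.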

T1 sequence (P50391 whole entry): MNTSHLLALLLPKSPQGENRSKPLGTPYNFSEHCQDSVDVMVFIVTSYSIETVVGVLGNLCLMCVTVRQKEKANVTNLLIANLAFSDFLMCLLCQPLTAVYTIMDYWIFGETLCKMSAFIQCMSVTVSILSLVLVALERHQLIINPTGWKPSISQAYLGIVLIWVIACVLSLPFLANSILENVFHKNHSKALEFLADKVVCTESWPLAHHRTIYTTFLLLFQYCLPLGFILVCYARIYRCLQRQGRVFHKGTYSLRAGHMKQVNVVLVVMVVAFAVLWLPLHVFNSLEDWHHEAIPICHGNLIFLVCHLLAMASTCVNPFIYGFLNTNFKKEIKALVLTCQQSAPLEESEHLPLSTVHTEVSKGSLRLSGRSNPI

- pEC50: 7.17
Compound: COC(=O)c1cccc(-c2cnc(N[C@@H]3CCCC[C@H]3N[C@H]3CCCN(c4ccc(C(F)(F)F)cc4)C3)o2)c1 [Example 115]
